Like-named read-outs stand apart in the source and are kept apart here.

In the assay the target is T1, COX-1 (Sus scrofa, UniProt A0A287ANF9).
T1 construct: A platelet suspension obtained from pig's blood is preincubated with the test substance; endogenous in cells; host or cells: platelets from pig's blood
Nature of the assay: In-vitro test for COX-1 inhibition: fluorimetric quantification of malonaldehyde (MDA) in A23187-activated pig platelet suspension. It counts as cell-based. The protocol:
In-vitro Test Procedure for the Determination of COX-1 Inhibition
The inhibition of the cyclooxygenase pathway is carried out by fluorimetric quantification of malonaldehyde (MA). This condenses in the acidic medium with twice the molar amount of thiobarbituric acid to give a red pigment dye, which has a fluorescence at λExcitation: 533 nm, λEmission: 550 nm.
A platelet suspension obtained from pig's blood is preincubated with the test substance for 10 min at 37° C. The concentration of the suspension should be 8×10^8 cells/ml. The arachidonic acid cascade is then activated by addition of the antibiotic calcium ionophore A23187 ([…]). After a further 10 min at 37° C., the reaction is stopped using a trichloroacetic acid solution. The samples are centrifuged and the supernatant is incubated with thiobarbituric acid for 30 min at 70° C. After cooling (30 min at room temperature), the samples are measured fluorimetrically at 533/550 nm and the IC50 values of the test compounds are determined therefrom by means of a calibration curve.

[1] abbreviates: Table 7, arylamides, pig platelets, read-out: MDA IC50.
Where [2] appears, read: Table 7, arylamides, pig platelets, read-out: MDA pIC50 (converted).
Setting [3] is: Table 9, alkylamides, pig platelets, read-out: MDA IC50.
The mark [4] stands for this setting: Table 9, alkylamides, pig platelets, read-out: MDA pIC50 (converted).
Setting [5] is: Table 11, heteroaryl- and naphthylamides, pig platelets, read-out: MDA pIC50 (converted).
The mark [6] stands for this setting: Table 10, alkylsulfonamides, pig platelets, read-out: MDA pIC50 (converted).

T1 sequence (A0A287ANF9 25-600): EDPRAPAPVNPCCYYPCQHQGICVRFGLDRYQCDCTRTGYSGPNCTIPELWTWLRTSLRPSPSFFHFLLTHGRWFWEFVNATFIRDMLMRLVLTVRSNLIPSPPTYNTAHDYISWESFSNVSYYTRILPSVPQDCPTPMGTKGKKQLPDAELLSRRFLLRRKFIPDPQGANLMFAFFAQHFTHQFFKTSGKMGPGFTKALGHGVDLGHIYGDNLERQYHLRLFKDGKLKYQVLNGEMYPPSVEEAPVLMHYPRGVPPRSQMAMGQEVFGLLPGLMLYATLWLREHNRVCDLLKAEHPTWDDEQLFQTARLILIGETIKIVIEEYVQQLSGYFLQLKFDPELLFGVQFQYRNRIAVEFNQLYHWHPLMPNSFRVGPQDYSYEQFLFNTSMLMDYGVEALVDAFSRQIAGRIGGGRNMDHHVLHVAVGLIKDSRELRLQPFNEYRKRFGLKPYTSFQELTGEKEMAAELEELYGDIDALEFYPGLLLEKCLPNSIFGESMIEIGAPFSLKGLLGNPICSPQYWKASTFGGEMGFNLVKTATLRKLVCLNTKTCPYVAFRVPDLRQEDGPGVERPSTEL

As for `COc1ccc(-c2nc(SCCNC(=O)c3ccc([N+](=O)[O-])cc3)[nH]c2-c2ccc(OC)cc2)cc1` [Compound T40, N^1-{2-[4,5-Bis(4-methoxyphenyl)-1H-imidazol-2-ylsufanyl]ethyl}-4-nitro-benzamide], under setting [1], the IC50 is 81 nM.

As to `COc1ccc(-c2nc(SCCNC(=O)c3ccccc3[N+](=O)[O-])[nH]c2-c2ccc(OC)cc2)cc1` [Compound T41, N^1-{2-[4,5-Bis(4-methoxyphenyl)-1H-imidazol-2-ylsulfanyl]ethyl}-2-nitro-benzamide], the IC50 under setting [2] is 170 nM.

In the case of `COc1ccc(-c2nc(SCCNC(=O)c3ccc(C(F)(F)F)cc3)[nH]c2-c2ccc(OC)cc2)cc1` [Compound T42, N^1-{2-[4,5-Bis(4-methoxyphenyl)-1H-imidazol-2-ylsufanyl]ethyl}-4-(tri-fluoromethyl)benzamide], under setting [2], the IC50 is 324 nM.

As for `COc1ccc(-c2nc(SCCNC(=O)c3cccc(C(F)(F)F)c3)[nH]c2-c2ccc(OC)cc2)cc1` [Compound T43, N^1-{2-[4,5-Bis(4-methoxyphenyl)-1H-imidazol-2-ylsufanyl]ethyl}-3-(tri-fluoromethyl)benzamide], the IC50 under setting [2] was 100 nM.

On to `COc1ccc(-c2nc(SCCNC(=O)c3cc(C(F)(F)F)cc(C(F)(F)F)c3)[nH]c2-c2ccc(OC)cc2)cc1` [Compound T44, N^1-{2-[4,5-Bis(4-methoxyphenyl)-1H-imidazol-2-ylsufanyl]ethyl}-3,5-bis-(trifluoromethyl)benzamide], for which, under setting [1], the IC50 turned out to be 520 nM.

For the compound `COc1ccc(C(=O)NCCSc2nc(-c3ccc(OC)cc3)c(-c3ccc(OC)cc3)[nH]2)cc1` [Compound T45, N^1-{2-[4,5-Bis(4-methoxyphenyl)-1H-imidazol-2-ylsufanyl]ethyl}-4-methoxybenzamide], the IC50 under setting [2] was 1000 nM.

Take `COc1ccc(-c2nc(SCCNC(=O)c3cc(OC)c(OC)c(OC)c3)[nH]c2-c2ccc(OC)cc2)cc1` [Compound T46, N^1-{2-[4,5-Bis(4-methoxyphenyl)-1H-imidazol-2-ylsufanyl]ethyl}-3,4,5-trimethoxybenzamide]: the IC50 under setting [1] came out at 640 nM and the IC50 under setting [2] was 603 nM.

`COc1ccc(-c2nc(SCCNC(=O)c3ccc(C)cc3)[nH]c2-c2ccc(OC)cc2)cc1` [Compound T47, N^1-{2-[4,5-Bis(4-methoxyphenyl)-1H-imidazol-2-ylsulfanyl]ethyl}4-methylbenzamide]: the IC50 under setting [2] is 141 nM.

In the case of `COc1ccc(-c2nc(SCCNC(=O)c3ccc(C(C)(C)C)cc3)[nH]c2-c2ccc(OC)cc2)cc1` [Compound T48, N^1-{2-[4,5-Bis(4-methoxyphenyl)-1H-imidazol-2-ylsufanyl]ethyl}-4-(tert-butyl)benzamide], the IC50 under setting [1] stood at 82 nM.

In the case of `CCC(=O)NCCSc1nc(-c2ccc(OC)cc2)c(-c2ccc(OC)cc2)[nH]1` [Compound T50], the IC50 under setting [3] came out at 47 nM.

Turning to `COc1ccc(-c2nc(SCCNC(=O)C(C)C)[nH]c2-c2ccc(OC)cc2)cc1` [Compound T51, N^1-{2-[4,5-Bis(4-methoxyphenyl)-1H-imidazol-2-ylsufanyl]ethyl}-2-methylpropanamide], the IC50 is 8.8 nM under setting [3] and approximately 1 nM (tables 1 to 17, read-out: IC50 values (inhibition of cyclooxygenase-1)).

Take `COc1ccc(-c2nc(SCCNC(=O)C(C)(C)C)[nH]c2-c2ccc(OC)cc2)cc1` [Compound T52, N^1-{2-[4,5-Bis(4-methoxyphenyl)-1H-imidazol-2-ylsulfanyl]ethyl}-2,2-dimethylpropanamide]: the IC50 under setting [4] is 417 nM.

`COc1ccc(-c2nc(SCCNC(=O)c3ccco3)[nH]c2-c2ccc(OC)cc2)cc1` [Compound T53, N^1-{2-[4,5-Bis(4-methoxyphenyl)-1H-imidazol-2-ylsulfanyl]ethyl}furan-2-carboxamide]: the IC50 under setting [5] was 347 nM.

Take `COc1ccc(-c2nc(SCCNC(=O)c3cccs3)[nH]c2-c2ccc(OC)cc2)cc1` [Compound T54, N^1-{2-[4,5-Bis(4-methoxyphenyl)-1H-imidazol-2-ylsulfanyl]ethyl}thiophene-2-carboxamide]: the IC50 under setting [5] is 100 nM.

As to `COc1ccc(-c2nc(SCCNC(=O)c3cccc4ccccc34)[nH]c2-c2ccc(OC)cc2)cc1` [Compound T55, N^1-{2-[4,5-Bis(4-methoxyphenyl)-1H-imidazol-2-ylsulfanyl]ethyl}-1-naphthamide], the IC50 (Table 11, heteroaryl- and naphthylamides, pig platelets, read-out: MDA IC50) came out at 560 nM.

For the compound `COc1ccc(-c2nc(SCCNC(=O)c3ccc4ccccc4c3)[nH]c2-c2ccc(OC)cc2)cc1` [Compound T56, N^1-{2-[4,5-Bis(4-methoxyphenyl)-1H-imidazol-2-ylsulfanyl]ethyl}-2-naphthamide], the IC50 under setting [5] is 39.8 nM.

With `CCN(CC)C(=O)NCCSc1nc(-c2ccc(OC)cc2)c(-c2ccc(OC)cc2)[nH]1` [Compound T58, N^1-{2-[4,5-Bis(4-methoxyphenyl)-1H-imidazol-2-ylsulfanyl]ethyl}-N′,N′-diethylurea], for the setting “Table 13, urea derivatives, pig platelets, read-out: MDA IC50”, the IC50 came to 50 nM.

Take `COc1ccc(-c2nc(SCCNC(=O)Cc3ccccc3)[nH]c2-c2ccc(OC)cc2)cc1` [Compound T59, N^1-{2-[4,5-Bis(4-methoxyphenyl)-1H-imidazol-2-ylsulfanyl]ethyl}-2-phenylacetamide]: under setting [3], the IC50 worked out at 54 nM.

Consider `COc1ccc(-c2nc(SCCNC(=O)CCc3ccccc3)[nH]c2-c2ccc(OC)cc2)cc1` [Compound T60, N^1-{2-[4,5-Bis(4-methoxyphenyl)-1H-imidazol-2-ylsulfanyl]ethyl}-3-phenylpropanamide], for which the IC50 by setting is: under setting [3], 150 nM; under setting [4], 151 nM.

Regarding `COc1ccc(-c2nc(SCCNC(=O)C=Cc3ccccc3)[nH]c2-c2ccc(OC)cc2)cc1` [Compound T61, N^1-{2-[4,5-Bis(4-methoxyphenyl)-1H-imidazol-2-ylsulfanyl]ethyl}-3-phenylprop-2-enamide], the IC50 under setting [4] is 182 nM.

As for `COc1ccc(-c2nc(SCCNC(=O)C(c3ccccc3)c3ccccc3)[nH]c2-c2ccc(OC)cc2)cc1` [Compound T62, N^1-{2-[4,5-Bis(4-methoxyphenyl)-1H-imidazol-2-ylsulfanyl]ethyl}-2,2-diphenylacetamide], under setting [4], the IC50 was 129 nM.

Regarding `COc1ccc(-c2nc(SCCNS(C)(=O)=O)[nH]c2-c2ccc(OC)cc2)cc1` [Compound T63, N^1-{2-[4,5-Bis(4-methoxyphenyl)-1H-imidazol-2-ylsulfanyl]ethyl}-methanesulfonamide], the IC50 (Table 10, alkylsulfonamides, pig platelets, read-out: MDA IC50) came to 76 nM.

As to `CCS(=O)(=O)NCCSc1nc(-c2ccc(OC)cc2)c(-c2ccc(OC)cc2)[nH]1` [Compound T64, N^1-{2-[4,5-Bis(4-methoxyphenyl)-1H-imidazol-2-ylsulfanyl]ethyl}-ethanesulfonamide], the IC50 under setting [6] was 38.9 nM.

`COc1ccc(-c2nc(SCCNS(=O)(=O)C(C)C)[nH]c2-c2ccc(OC)cc2)cc1` [Compound T65, N^1-{2-[4,5-Bis(4-methoxyphenyl)-1H-imidazol-2-ylsulfanyl]ethyl}-propane-2-sulfonamide]: the IC50 under setting [6] is 10 nM.

Consider `COc1ccc(-c2nc(SCCNS(=O)(=O)Cc3ccccc3)[nH]c2-c2ccc(OC)cc2)cc1` [Compound T66, N^1-{2-[4,5-Bis(4-methoxyphenyl)-1H-imidazol-2-ylsulfanyl]ethyl}-phenylmethanesulfonamide], for which the IC50 under setting [6] is 100 nM.

With `COc1ccc(-c2nc(SCCNS(=O)(=O)c3cccc4ccccc34)[nH]c2-c2ccc(OC)cc2)cc1` [Compound T67, N^1-{2-[4,5-Bis(4-methoxyphenyl)-1H-imidazol-2-ylsulfanyl]ethyl}-naphthalene-1-sulfonamide], for the setting “Table 12, naphthylsulfonamides, pig platelets, read-out: MDA pIC50 (converted)”, the IC50 was 380 nM.

The values are drawn from patent publication US7223781B2 (Beiersdorf AG, priority 2001, dated 2007).
